We go through three compounds from patent US20180271888A1, “COMPOSITIONS AND METHODS FOR PARKINSON'S DISEASE THERAPY” (priority 2017, published 2018).

Common to all, as to type: in vivo, mouse
For test [1], the system named is 6-OHDA lesioned WT and P2X4R KO mice. Nature of the test: L-DOPA-induced rotational behavior in the 6-OHDA model of DA depletion (Example 1). As for the experimental part:
Mice were treated with desipramine hydrochloride (25 mg/kg, i.p.) (Sigma-Aldrich) 30 min prior to surgery to prevent concurrent damage of noradrenergic pathways by 6-OHDA. Mice were anesthetized with avertin ([…], i.p.) and placed in the stereotaxic apparatus. Two μL of freshly prepared 6-OHDA bromide salt (4 mg/mL in 0.2% ascorbic acid and 0.9% saline; Sigma-Aldrich) was unilaterally infused into left median forebrain bundle (from Bregma point: 1.2 mm posterior, 1.1 mm lateral, 5 mm ventral) (Franklin, B. J. and Paxinos, G. (2007) The Mouse Brain in Stereotaxic Coordinates. Elsevier Academic Press, Amsterdam) at a rate of 0.5 μL/min using a 10 μL Hamilton syringe and a microlitre syringe pump. The injection cannula was left in place for 3-5 min to prevent reflux and ensure complete absorption. Post-operative procedures involved daily subcutaneous (s.c.) injections with sucrose (5% w/v in saline) and warming on a heating pad for 2 weeks.
Mice were subjected to behavioral testing 3 weeks after 6-OHDA lesioning surgery. Mice were placed in a plastic cylinder (318 mm in diameter) with a video camera mounted above it. Baseline rotational behavior was established by saline injections which causes the mouse to rotate toward the lesioned side with lesser DA activity (ipsilateral rotations). L-DOPA (5 mg/kg, s.c.) was administered 5 min prior to behavioral testing and the number of contralateral and ipsilateral rotations were counted in every 10-minute interval for a total period of 90 min.
For the western blotting analysis, the average of densitometry values of WT striatal samples was used to arbitrarily normalize WT samples to 1 and the P2X4R KO striatal samples were normalized by dividing each densitometry value by the average of WT samples. Normalization of the two genotypes was done within the same membrane and presented as fold change of P2X4R KO versus WT in that membrane. For D1, D2, DARPP-32, ERK 1/2, and CREB immunoblotting; WT and P2X4R KO mice were generated in separate cohorts. The normalization of P2X4R KO to WT samples was done within the same cohort followed by combining data from two cohorts for analyses. […] Normalized density of proteins was expressed as mean±SEM. Phosphorylation was calculated as ratio of normalized values of phosphorylated form to total form of protein. DA levels were expressed as ng/mg of protein content. Unpaired Student t-test was used for analyzing the differences in protein densities and DA levels between WT and P2X4R KO groups. […] Pharmacological studies for motor behavior and sensorimotor gating were analyzed by two-way repeated measures ANOVA with time/PPI intensity and genotype/treatment as within and between-subjects variability, respectively, followed by Bonferroni post hoc test for multiple comparisons. Significance was set at p<0.05. All data were analyzed using GraphPad Prism software (San Diego, Calif., USA).

The test system of another test is TH. Briefly: TH expression in striatum after 6-OHDA lesioning. The note with it: 6-OHDA 4 mg/mL, 2 μL unilateral, lesioned vs unlesioned side. As for the experimental part: Protein samples of 50 lg ran on 10% sodium dodecyl sulfate-polyacrylamide gel electrophoresis gels and transferred onto polyvinylidine diflouride membranes using semi-dry transfer method (Trans turbo blot; BioRad Laboratories, Hercules, Calif., USA). Striatal samples from WT and P2X4R KO mice were made to run on the same gel and transferred onto the same membrane. Nonspecific binding was blocked by incubation in 5% non-fat dry milk, followed by incubation with primary antibodies overnight at 4° C. The antibodies used were rabbit anti-TH (1:5000), mouse anti-DAT (1:1000), rabbit anti-D2 receptor (1:1000), rabbit anti-DARPP-32 (1:1000) (Millipore), rabbit anti-D1 receptor (1:500; SantaCruz biotechnology, Santacruz, Calif., USA), mouse anti-total ERK 1/2 (1:1000), rabbit anti-total CREB (1:1000) (Cell Signaling Technology, Beverly, Mass., USA), mouse anti-β-actin (1:20 000; Sigma-Aldrich), and mouse anti-α-tubulin (1:10 000; Millipore). The antibodies for phospho proteins included rabbit antiphospho-Thr34-DARPP-32 (1:400; Millipore), rabbit anti-phospho-Ser133-CREB (1:500), rabbit anti-diphospho-Thr202/Tyr204-ERK 1/2 (1:500) (Cell Signaling Technology). Secondary antibodies included goat anti-mouse and goat anti-rabbit antibodies (1:10 000; BioRad Laboratories). […] Protein quantification was carried out by optical densitometry using ImageJ software (NIH, Bethesda, Md., USA). […]

The next test deals with WT and P2X4R KO mice. Briefly: Prepulse inhibition (PPI) of acoustic startle reflex. As for the experimental part: Acoustic startle reflex and PPI were tested as previously described (Wyatt, L. R. et al. (2013) Neuropsychopharmacology 38:1993-2002). The apparatus used for detection of startle reflex (San Diego Instruments, San Diego, Calif., USA) consisted of a standard cage placed in sound attenuated chambers with fan ventilation. Each cage consisted of a Plexiglass cylinder of 3 cm diameter, mounted on piezoelectric accelerometric platform connected to an analog-digital converter. Background noise and acoustic bursts were conveyed by two separate speakers, each one oriented appropriately so as to produce a variation in sound within 1 dB across the startle cage. Both speakers and startle cages were connected to the main PC, which detected and analyzed all chamber variables with Startle software (San Diego Instruments). Before each testing session, acoustic stimuli were calibrated via a digital sound level meter.
During the baseline session, mice were exposed to background noise of 70 dB and, after an acclimatization period of 5 min, were presented with 12 40 ms trials of 115 dB interposed with three trials of a 82 dB pre-stimulus preceding the 115 dB by 100 ms. […] Delta PPI (APPI) was calculated as mean startle amplitude for pulse alone trials—(mean startle amplitude for prepulse trial). […]
For the western blotting analysis, the average of densitometry values of WT striatal samples was used to arbitrarily normalize WT samples to 1 and the P2X4R KO striatal samples were normalized by dividing each densitometry value by the average of WT samples. […] Normalized density of proteins was expressed as mean±SEM. Phosphorylation was calculated as ratio of normalized values of phosphorylated form to total form of protein. DA levels were expressed as ng/mg of protein content. […] Pharmacological studies for motor behavior and sensorimotor gating were analyzed by two-way repeated measures ANOVA with time/PPI intensity and genotype/treatment as within and between-subjects variability, respectively, followed by Bonferroni post hoc test for multiple comparisons. […]

With `N[C@@H](Cc1ccc(O)c(O)c1)C(=O)O` [L-DOPA, L-3,4-didhydrophenylalanine], the “rotational behavior with L-DOPA treatment” value in test [1] (L-DOPA 5 mg/kg s.c., 6-OHDA lesioned WT and P2X4R KO mice) is “exhibited contralateral rotations”. For the same compound, the “L-DOPA-induced contralateral turns, P2X4R KO compared to WT mice” value in test [1] (L-DOPA 5 mg/kg, significant during the 45-55 min interval) was “significantly fewer”.

Regarding `NCCc1cc(O)c(O)cc1O` [6-OHDA, 6-hydroxydopamine], the “reduced TH expression in the striatum” value is recorded as 96.3% with TH (P2X4R KO mice) and 95.7% with TH (WT mice).

Turning to `CCN1CCC[C@H]1CNC(=O)c1c(O)c(Cl)cc(Cl)c1OC` [raclopride], the “PPI of acoustic startle reflex” value in the test on WT and P2X4R KO mice (P2X4R KO mice vs saline, SCH-23390 1 mg/kg i.p. or raclopride 3 mg/kg i.p., 10 min prior, significant at PPI 6 and PPI 12) is “significantly enhanced”. For the same compound, in the test with WT and P2X4R KO mice (P2X4R KO mice, SCH-23390 1 mg/kg or raclopride 3 mg/kg), the startle amplitude result is given as “without any changes”. The PPI function result in the test with WT and P2X4R KO mice (WT mice, SCH-23390 1 mg/kg or raclopride 3 mg/kg i.p.) is given as “no significant changes”.
